For five compounds, koff results are on record in BindingDB's records for doi:10.7270/Q2M61NDW (n/a, 1996).

In this assay the target is T1, Papain (Carica papaya, UniProt P00784).
T1 sequence (P00784 whole entry): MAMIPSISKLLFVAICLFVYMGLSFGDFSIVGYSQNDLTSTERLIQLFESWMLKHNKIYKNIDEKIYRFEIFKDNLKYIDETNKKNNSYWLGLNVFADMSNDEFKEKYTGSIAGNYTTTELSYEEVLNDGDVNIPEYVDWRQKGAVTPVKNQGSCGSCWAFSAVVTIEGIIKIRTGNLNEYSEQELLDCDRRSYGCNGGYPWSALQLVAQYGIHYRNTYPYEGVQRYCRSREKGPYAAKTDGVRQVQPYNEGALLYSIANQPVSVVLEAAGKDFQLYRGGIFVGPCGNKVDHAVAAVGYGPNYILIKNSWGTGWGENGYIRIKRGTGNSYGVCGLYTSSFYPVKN
In words: Pseudo-first order rate constant for inhibition of thiol-dependent papain enzyme.

The term koff denotes the rate constant with which the complex falls apart. High values mean a short-lived complex, low ones a long-lived complex. `CN(N=O)c1ccc(Cl)cc1`: the koff worked out at 0.000283 s⁻¹. Next, `CN(N=O)c1ccccc1O`: 0.000183 s⁻¹; `CN(N=O)c1cccc(O)c1`: 0.0006 s⁻¹; `CN(N=O)c1ccccc1[N+](=O)[O-]`: 0.000433 s⁻¹. The compound `CN(N=O)c1ccccc1` showed a koff of 0.00095 s⁻¹.
